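Interpolation was linear, between the two tested concentrations surrounding the appropriate level; five concentrations were tested over 48 hours in 96-well plates. The concentration for 50% growth inhibition is given as GI50.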 Active and inactive are the calls of the source. Cut-off read from the data, not from the text of the source: active = GI50 up to about 1.1 µM and inactive = higher.
Experiments:
Assay in all cases: inhibition of tumour cell growth, NCI panel, 48 h
786-0 = system: 786-0
CAKI-1 = system: CAKI-1
COLO 205 = system: COLO 205
EKVX = system: EKVX
HCT-116 = system: HCT-116
HCT-15 = system: HCT-15
HL-60 = system: HL-60
HOP-92 = system: HOP-92
K562 = system: K562
MCF7 = system: MCF7
NCI-H23 = system: NCI-H23
NCI-H460 = system: NCI-H460
NCI-H522 = system: NCI-H522
NCI/ADR-RES = system: NCI/ADR-RES
OVCAR-3 = system: OVCAR-3
RPMI-8226 = system: RPMI-8226
RXF 393 = system: RXF 393
SF-539 = system: SF-539
SK-MEL-2 = system: SK-MEL-2
SK-OV-3 = system: SK-OV-3

| SMILES | GI50 (786-0) | GI50 (CAKI-1) | GI50 (COLO 205) | GI50 (EKVX) | GI50 (HCT-116) | GI50 (HCT-15) [µM] | GI50 (HL-60) | GI50 (HOP-92) | GI50 (K562) | GI50 (MCF7) | GI50 (NCI-H23) | GI50 (NCI-H460) | GI50 (NCI-H522) | GI50 (NCI/ADR-RES) | GI50 (OVCAR-3) | GI50 (RPMI-8226) | GI50 (RXF 393) | GI50 (SF-539) | GI50 (SK-MEL-2) | GI50 (SK-OV-3) |
| --- | --- | --- | --- | --- | --- | --- | --- | --- | --- | --- | --- | --- | --- | --- | --- | --- | --- | --- | --- | --- |
| CCCOc1ccc(/C=C/C2=[N+](CCO)CCO2)cc1 | > 100 µM (inactive) | > 100 µM (inactive) | > 100 µM (inactive) | > 100 µM (inactive) | > 100 µM (inactive) | > 100 | > 100 µM (inactive) | > 100 µM (inactive) | > 100 µM (inactive) | > 100 µM (inactive) | > 100 µM (inactive) | > 100 µM (inactive) | > 100 µM (inactive) | > 100 µM (inactive) | > 100 µM (inactive) | > 100 µM (inactive) | > 100 µM (inactive) | > 100 µM (inactive) | > 100 µM (inactive) | > 100 µM (inactive) |
| CC[C@@]1(O)C(=O)OCc2c1cc1n(c2=O)Cc2cc3c(N)cccc3nc2-1 [9-AMINOCAMPTOTHECIN] | < 0.01 µM (active) | < 0.01 µM (active) | 0.157 µM (active) | 0.34 µM (active) | 0.0272 µM (active) | 0.197 | < 0.01 µM (active) | 0.0356 µM (active) | 0.112 µM (active) | < 0.01 µM (active) | < 0.01 µM (active) | < 0.01 µM (active) | 0.0181 µM (active) | 0.0128 µM (active) | 0.207 µM (active) | 0.0764 µM (active) | 0.0408 µM (active) | < 0.01 µM (active) | 0.233 µM (active) | 0.0157 µM (active) |
| O=S(=O)(O)c1ccc2c(/N=N\c3cccc4ccccc34)c(O)c(S(=O)(=O)O)cc2c1 | > 100 µM (inactive) | > 100 µM (inactive) | > 100 µM (inactive) | > 100 µM (inactive) | > 100 µM (inactive) | > 100 | > 100 µM (inactive) | > 100 µM (inactive) | > 100 µM (inactive) | > 100 µM (inactive) | > 100 µM (inactive) | > 100 µM (inactive) | > 100 µM (inactive) | > 100 µM (inactive) | > 100 µM (inactive) | > 100 µM (inactive) | > 100 µM (inactive) | > 100 µM (inactive) | > 100 µM (inactive) | > 100 µM (inactive) |
| COc1ccc2c(-c3cc4ccccc4o3)cc(=O)oc2c1 | 25.8 µM (inactive) | 40.6 µM (inactive) | > 100 µM (inactive) | 48.6 µM (inactive) | 42.3 µM (inactive) | > 100 | > 100 µM (inactive) | 24.3 µM (inactive) | > 100 µM (inactive) | > 67.3 µM (inactive) | 52.1 µM (inactive) | 44.7 µM (inactive) | 37.2 µM (inactive) | 24.7 µM (inactive) | 16.6 µM (inactive) | > 88.7 µM (inactive) | 18 µM (inactive) | 16.7 µM (inactive) | 66.5 µM (inactive) | 23.1 µM (inactive) |
| c1ccc2c(c1)c1c3c(c4c(n32)=NCCN4)CCC1 | 28.1 µM (inactive) | 40.8 µM (inactive) | 28.1 µM (inactive) | 20.9 µM (inactive) | 30.5 µM (inactive) | 15.2 | 44.4 µM (inactive) | 25.6 µM (inactive) | 27.6 µM (inactive) | 24.8 µM (inactive) | 31.6 µM (inactive) | 34.7 µM (inactive) | 20.7 µM (inactive) | 27.9 µM (inactive) | 34.8 µM (inactive) | 24.3 µM (inactive) | 17.9 µM (inactive) | 46.1 µM (inactive) | 23.3 µM (inactive) | 37.1 µM (inactive) |
| CC(=O)Nc1cccc(N2C(=O)/C(=C\c3cccc(Oc4ccccc4)c3)SC2c2ccccc2)c1 (stereo not given) | > 100 µM (inactive) | > 100 µM (inactive) | 68.7 µM (inactive) | > 100 µM (inactive) | 27 µM (inactive) | > 100 | 36.6 µM (inactive) | 32.5 µM (inactive) | 25.6 µM (inactive) | 36.4 µM (inactive) | 83.2 µM (inactive) | > 100 µM (inactive) | 63.5 µM (inactive) | 60.8 µM (inactive) | 50.7 µM (inactive) | 30.3 µM (inactive) | 27.7 µM (inactive) | 38.4 µM (inactive) | > 100 µM (inactive) | 76 µM (inactive) |
| O=C(Nn1cc(F)c(=O)[nH]c1=O)C12CC3CC(CC(C3)C1)C2 | 10.7 µM (inactive) | 4.6 µM (inactive) | 9.75 µM (inactive) | 24 µM (inactive) | 5.77 µM (inactive) | 6.56 | 9.46 µM (inactive) | 8.69 µM (inactive) | 14.6 µM (inactive) | 5.22 µM (inactive) | 7.73 µM (inactive) | 1.91 µM (inactive) | 16.6 µM (inactive) | 24.2 µM (inactive) | 10.4 µM (inactive) | 6.93 µM (inactive) | 16.4 µM (inactive) | 2.21 µM (inactive) | 23.2 µM (inactive) | 18.4 µM (inactive) |
| CCCCCCCCCCCCCCCCNCC(O)CN (stereo not given) | – | 12.2 µM (inactive) | 1.87 µM (inactive) | 17.3 µM (inactive) | 1.87 µM (inactive) | 2.06 | 1.85 µM (inactive) | 2.65 µM (inactive) | 1.75 µM (inactive) | 2.36 µM (inactive) | 6.71 µM (inactive) | 1.84 µM (inactive) | 14.5 µM (inactive) | 2.22 µM (inactive) | 2.52 µM (inactive) | 2 µM (inactive) | 2.82 µM (inactive) | 2.34 µM (inactive) | 18.6 µM (inactive) | 18.4 µM (inactive) |
| C[n+]1c2ccccc2n2c3ccccc3c(NCCCn3ccnc3)c(C#N)c21 | 2.04 µM (inactive) | 10.5 µM (inactive) | 1.23 µM (inactive) | 4.78 µM (inactive) | 1.08 µM (active) | 5.66 | 3.94 µM (inactive) | 3.15 µM (inactive) | 2.39 µM (inactive) | 0.547 µM (active) | 2.27 µM (inactive) | 1.44 µM (inactive) | 0.575 µM (active) | > 42 µM (inactive) | 2.36 µM (inactive) | 1.22 µM (inactive) | 0.923 µM (active) | 3.94 µM (inactive) | 1.62 µM (inactive) | 3.54 µM (inactive) |
| Cc1ccc(S(=O)(=O)N/N=C2/CCCOC2)cc1 | > 100 µM (inactive) | > 100 µM (inactive) | > 100 µM (inactive) | > 100 µM (inactive) | > 100 µM (inactive) | > 100 | > 100 µM (inactive) | > 100 µM (inactive) | > 100 µM (inactive) | > 100 µM (inactive) | > 100 µM (inactive) | > 100 µM (inactive) | > 100 µM (inactive) | > 100 µM (inactive) | > 100 µM (inactive) | > 100 µM (inactive) | > 100 µM (inactive) | > 100 µM (inactive) | > 100 µM (inactive) | > 100 µM (inactive) |
| COC(=O)C1C(O)C(C)C(O)OC1C(C)C(O)C(C)/C=C\C=C(/C)C(=O)Nc1c(C)c(OC(C)=O)c2c(c1O)C(=O)C(C)=C1OCOC(/C(C)=C/C(C)=O)=C12 (stereo not given) | – | 17.6 µM (inactive) | 8.99 µM (inactive) | 11.9 µM (inactive) | 9.53 µM (inactive) | 14.3 | 3.1 µM (inactive) | 12.8 µM (inactive) | 16.5 µM (inactive) | 13.9 µM (inactive) | 14.2 µM (inactive) | 13.7 µM (inactive) | 2.25 µM (inactive) | 15.1 µM (inactive) | 9.38 µM (inactive) | 9.48 µM (inactive) | 13 µM (inactive) | 13.2 µM (inactive) | 12.6 µM (inactive) | 20 µM (inactive) |
| CC[C@@]1(O)C[C@H](OC2CC(N(C)C)C(O)C(C)O2)c2c(cc3c(c2O)C(=O)c2c(O)ccc(O)c2C3=O)[C@H]1C(=O)OC (stereo not given in full) | – | 0.027 µM (active) | 0.0467 µM (active) | 0.135 µM (active) | 0.0229 µM (active) | 0.0452 | 0.0457 µM (active) | 0.256 µM (active) | 0.0292 µM (active) | 0.0885 µM (active) | 0.11 µM (active) | 0.0221 µM (active) | 0.0521 µM (active) | 0.0526 µM (active) | 0.149 µM (active) | 0.0364 µM (active) | 0.0366 µM (active) | 0.0895 µM (active) | 0.101 µM (active) | 0.236 µM (active) |
| Cc1ccc(SCC(CF)OCn2cc(F)c(=O)[nH]c2=O)cc1 (stereo not given) | > 100 µM (inactive) | > 100 µM (inactive) | – | > 100 µM (inactive) | > 100 µM (inactive) | > 100 | 76.9 µM (inactive) | > 100 µM (inactive) | > 100 µM (inactive) | > 100 µM (inactive) | > 100 µM (inactive) | > 100 µM (inactive) | > 100 µM (inactive) | > 100 µM (inactive) | > 100 µM (inactive) | > 100 µM (inactive) | > 100 µM (inactive) | > 100 µM (inactive) | > 100 µM (inactive) | > 100 µM (inactive) |
| N/N=C1/C(=N/O)CCc2nonc21 | > 100 µM (inactive) | > 100 µM (inactive) | > 100 µM (inactive) | 41.6 µM (inactive) | > 100 µM (inactive) | > 100 | > 100 µM (inactive) | > 100 µM (inactive) | > 100 µM (inactive) | > 100 µM (inactive) | > 100 µM (inactive) | > 100 µM (inactive) | – | > 100 µM (inactive) | > 100 µM (inactive) | > 100 µM (inactive) | > 100 µM (inactive) | > 100 µM (inactive) | > 100 µM (inactive) | > 100 µM (inactive) |

From ChEMBL document CHEMBL1201862, “PubChem BioAssay data set” (2004)
